Experiments:
[1] = excess molar enthalpy (molar enthalpy of mixing); xn = mol fraction of the nth substance listed; conditions: 298.15 K, 101 kPa, Liquid, Calvet calorimetry
[2] = xn = mol fraction of the nth substance listed; conditions: 298.15 K, 101 kPa, Liquid, Vibrating tube method

BrCCBr [1,2-dibromoethane] + CCCCOC(=O)CC
[1]
Conditions | excess molar enthalpy [kcal/mol]
x2 = 0.0417 | 0.00526
x2 = 0.0966 | 0.00741
x2 = 0.1618 | 0.00621
x2 = 0.2302 | 0.00191
x2 = 0.2936 | -0.00478
x2 = 0.3529 | -0.012
x2 = 0.4091 | -0.0179
x2 = 0.4511 | -0.022
x2 = 0.4917 | -0.0241
x2 = 0.5694 | -0.0265
x2 = 0.6594 | -0.0263
x2 = 0.7605 | -0.0229
x2 = 0.8773 | -0.0151

BrCCBr [1,2-dibromoethane] + CCCCOC(C)=O
[1]
Conditions | excess molar enthalpy [kcal/mol]
x2 = 0.0399 | -0.000239
x2 = 0.0964 | -0.000717
x2 = 0.1625 | -0.00382
x2 = 0.2339 | -0.0103
x2 = 0.3039 | -0.0174
x2 = 0.3717 | -0.0246
x2 = 0.4237 | -0.0308
x2 = 0.4749 | -0.0351
x2 = 0.5228 | -0.0363
x2 = 0.5985 | -0.0366
x2 = 0.6854 | -0.0332
x2 = 0.7854 | -0.0277
x2 = 0.8989 | -0.0148

BrCCBr [1,2-dibromoethane] + CCCCOC=O
Conditions | excess molar enthalpy, [1] [kcal/mol] | mass density, [2] [kg/m3]
x2 = 0.0489 | – | 2085.1
x2 = 0.0509 | 0.0098 | –
x2 = 0.0955 | – | 2008.94
x2 = 0.1197 | 0.0186 | –
x2 = 0.1401 | – | 1938.46
x2 = 0.1884 | – | 1864.18
x2 = 0.1992 | 0.027 | –
x2 = 0.2379 | – | 1790.7
x2 = 0.28 | 0.032 | –
x2 = 0.3095 | – | 1688.13
x2 = 0.3398 | – | 1646.07
x2 = 0.3511 | 0.0332 | –
x2 = 0.3993 | 0.0327 | 1565.68
x2 = 0.449 | 0.0315 | –
x2 = 0.4831 | 0.0299 | –
x2 = 0.5112 | – | 1422.24
x2 = 0.5504 | 0.027 | –
x2 = 0.5786 | – | 1340.18
x2 = 0.6334 | 0.022 | –
x2 = 0.641 | – | 1266.85
x2 = 0.7029 | – | 1196.55
x2 = 0.7275 | 0.016 | –
x2 = 0.7738 | – | 1118.89
x2 = 0.8087 | 0.0105 | –
x2 = 0.8358 | – | 1053.24
x2 = 0.9111 | 0.00406 | –
x2 = 0.9138 | – | 973.46

BrCCCBr [1,3-dibromopropane] + CCCCOC(=O)CC
[1]
Conditions | excess molar enthalpy [kcal/mol]
x2 = 0.045 | 0.00765
x2 = 0.1122 | 0.0124
x2 = 0.1829 | 0.0129
x2 = 0.2541 | 0.00908
x2 = 0.3191 | 0.00215
x2 = 0.3797 | -0.00813
x2 = 0.4331 | -0.0151
x2 = 0.4438 | -0.017
x2 = 0.5107 | -0.0229
x2 = 0.5886 | -0.0261
x2 = 0.6793 | -0.0263
x2 = 0.7807 | -0.022
x2 = 0.8921 | -0.0131

BrCCCBr [1,3-dibromopropane] + CCCCOC(C)=O
[1]
Conditions | excess molar enthalpy [kcal/mol]
x2 = 0.0548 | 0.00191
x2 = 0.1295 | 0.00287
x2 = 0.2133 | 0.00191
x2 = 0.2909 | -0.00167
x2 = 0.3612 | -0.0086
x2 = 0.424 | -0.017
x2 = 0.4792 | -0.0251
x2 = 0.5321 | -0.0289
x2 = 0.6141 | -0.0296
x2 = 0.7077 | -0.0277
x2 = 0.808 | -0.0217
x2 = 0.9143 | -0.0131

BrCCCBr [1,3-dibromopropane] + CCCCOC=O
Conditions | excess molar enthalpy [kcal/mol] | mass density [kg/m3]
[1], x2 = 0.0631 | 0.0155 | –
[1], x2 = 0.1489 | 0.0306 | –
[1], x2 = 0.2355 | 0.0397 | –
[1], x2 = 0.3208 | 0.0435 | –
[1], x2 = 0.3958 | 0.0428 | –
[1], x2 = 0.4589 | 0.0409 | –
[1], x2 = 0.5144 | 0.0378 | –
[1], x2 = 0.5498 | 0.0356 | –
[1], x2 = 0.5621 | 0.0344 | –
[1], x2 = 0.6372 | 0.0289 | –
[1], x2 = 0.7237 | 0.0227 | –
[1], x2 = 0.8208 | 0.0143 | –
[1], x2 = 0.9151 | 0.00693 | –
[2], x2 = 0.055 | – | 1904.29
[2], x2 = 0.1095 | – | 1839
[2], x2 = 0.1626 | – | 1776.37
[2], x2 = 0.2171 | – | 1712.74
[2], x2 = 0.273 | – | 1648.68
[2], x2 = 0.3252 | – | 1589.49
[2], x2 = 0.5003 | – | 1397.08
[2], x2 = 0.5617 | – | 1331.4
[2], x2 = 0.6186 | – | 1271.46
[2], x2 = 0.6866 | – | 1200.91
[2], x2 = 0.8026 | – | 1082.84
[2], x2 = 0.8655 | – | 1020.08
[2], x2 = 0.9344 | – | 952.37

BrCCCCCBr [1,5-dibromopentane] + CCCCOC(=O)CC
[1]
Conditions | excess molar enthalpy [kcal/mol]
x2 = 0.0697 | 0.00741
x2 = 0.1544 | 0.012
x2 = 0.248 | 0.0124
x2 = 0.3363 | 0.00884
x2 = 0.4134 | 0.00263
x2 = 0.4801 | -0.00526
x2 = 0.4924 | -0.00884
x2 = 0.5371 | -0.0131
x2 = 0.5511 | -0.0165
x2 = 0.6257 | -0.0206
x2 = 0.7153 | -0.021
x2 = 0.8183 | -0.016
x2 = 0.9151 | -0.00884

BrCCCCCBr [1,5-dibromopentane] + CCCCOC(C)=O
[1]
Conditions | excess molar enthalpy [kcal/mol]
x2 = 0.0669 | 0.00669
x2 = 0.1499 | 0.00956
x2 = 0.2436 | 0.01
x2 = 0.3318 | 0.00837
x2 = 0.4096 | 0.00454
x2 = 0.4762 | 0.000239
x2 = 0.5331 | -0.00478
x2 = 0.5566 | -0.00765
x2 = 0.5827 | -0.00932
x2 = 0.6168 | -0.0124
x2 = 0.6927 | -0.0151
x2 = 0.7844 | -0.0141
x2 = 0.8533 | -0.0105
x2 = 0.9377 | -0.00574

CCCCOC(=O)CCC [butyl butanoate] + BrCCBr
[1]
Conditions | excess molar enthalpy [kcal/mol]
x1 = 0.0408 | 0.00621
x1 = 0.0978 | 0.0115
x1 = 0.1663 | 0.0139
x1 = 0.2361 | 0.0122
x1 = 0.2997 | 0.00765
x1 = 0.3488 | 0.00359
x1 = 0.4085 | -0.000478
x1 = 0.4847 | -0.00645
x1 = 0.5816 | -0.0115
x1 = 0.7159 | -0.0129
x1 = 0.8632 | -0.00884
x1 = 0.9347 | -0.00526

Source: the NIST ThermoML archive (doi:10.1016/j.jct.2009.05.006)
